Results: EP4678639A1, “SALT OF BENZIMIDAZOLE DERIVATIVE” (JW Pharmaceutical Corporation, priority 2023, dated 2024)
Where a name gives a salt, the structure may show the parent alone.

Columns and labels:
[1] = Solid-state stress stability test (humidity 90 % RH); details: for Initial (%) Degradant / Initial (%) Total Related substances: Table 9, initial
Method: (§1) Operation and Calculation: The blank solution, standard solution, and test solution were sequentially tested under the instrument operating conditions according to the liquid chromatography method in the General Test Methods of the 12th Edition of the Korean Pharmacopoeia, and the amount of related substances was calculated using the following equation. Amount of each related; substance (%) = (AT)/(AS) × (CS)/(CT) × (Molecular weight; of the sample)/(Molecular weight; of the standard; product) × P × (1)/(RR; F) [formula] AT = Area of each related substance peak obtained from the test solution AS = Area of the tegoprazan peak obtained from the standard solution CS = Concentration of standard solution (mg/mL) CT = Concentration of test solution (mg/mL) P = Purity/Assay/Potency (%) of standard product RRF = Relative response factor (1.0)
(§2) A solid-state stability comparative test was conducted on each of the above-mentioned prepared tegoprazan acid addition salts. The stability comparative test was conducted for 1 month under the conditions shown in Table 6 below in accordance with The International Council for Harmonisation of Technical Requirements for Pharmaceuticals for Human Use (ICH) guideline, and the purity of the acid addition salt, total related substances, and the content of degradants were measured by HPLC at the initial time point and after 1 month. Total related substances and degradants were measured according to the related substance test method (HPLC).
3) Stress Stability (humidity 90 % RH)

[2] = Solid-state stress stability test (temperature 60 °C); details: for Change (%) Degradant: 1 month vs initial; for Initial (%) Degradant / Initial (%) Total Related substances: Table 8, initial
Method: as §1, §2
2) Stress Stability Test (temperature 60 °C)

[3] = Photostability test, visible light (1.2 Mlux·hr) exposure; details: for Initial (%) Degradant / Initial (%) Total Related substances: Table 11, initial; for After (%) Degradant / After (%) Total Related substances: Table 11 under heading Visible Light (1.2 Mlux-hr) Exposure Test
Method: (§3) A photostability comparative test was conducted on each of the above-mentioned prepared tegoprazan acid addition salts. The test was conducted by exposing the sample to light with an energy of 200 W hr/m^2 of ultraviolet light and 1.2 Mlux hr of visible light in accordance with The International Council for Harmonisation of Technical Requirements for Pharmaceuticals for Human Use (ICH) guideline, with the samples packaged in a single PE bag and spread thinly enough to ensure exposure to the light source, taking humidity stability into consideration. The purity of the acid addition salts and the change in the amount of degradants at the initial time point and after exposure to ultraviolet light or visible light were measured by HPLC.

[4] = Photostability test, ultraviolet light (200 W·hr/m2) exposure; details: for After Ultraviolet Light Exposure (200 W hr/m2)(%) Degradant / After Ultraviolet Light Exposure (200 W hr/m2)(%) Total Related substances: Table 10, UV 200 W·hr/m2, PE bag; for Change (%) Degradant: Table 10, after UV exposure vs initial; for Initial (%) Degradant / Initial (%) Total Related substances: Table 10, initial
Method: as §3

[5] = Solid-state accelerated stability test (40 ± 2 °C/RH 75 ± 5 %); details: for Change (%) Degradant: 1 month vs initial; for Initial (%) Degradant: degradant of Formula 4
Method: as §1, §2

[6] = Liquid stability comparative test (20 mg/mL in purified water, 40 °C, 24 hours, HPLC); type: physicochemical; details: for solid precipitation / solution state: stored at 40 °C for 24 hours
Method: The analysis conditions are as follows.
Each sample was dissolved in purified water to prepare a solution with a concentration of 20 mg/mL, stored at an external temperature of 40 °C, and analyzed by HPLC at the initial time point and after 24 hours to measure purity, and the change in the generated degradant (Formula 4) was measured. The analysis of total related substances and degradants was performed by taking a liquid from a solution prepared at a concentration of 20 mg/mL, diluting it to a concentration of 4 mg/mL with the diluent of the related substance test method (HPLC), and measuring it as a test solution, and analyzing it according to the related substance test method (HPLC).

[7] = 40 ± 2 °C / RH 75 ± 5 %, 1 month

Compound | Initial (%) Degradant [1] [%] | Initial (%) Total Related substances [1] [%] | After 1 Month (%) Degradant ([2]; 60 °C, 1 month) [%] | After 1 Month (%) Total Related substances ([2]; 60 °C, 1 month) [%] | Change (%) Degradant ([2]; 60 °C) [%] | Initial (%) Degradant [2] [%] | Initial (%) Total Related substances [2] [%] | Initial (%) Degradant [3] [%] | Initial (%) Total Related substances [3] [%] | After (%) Degradant [3] [%] | After (%) Total Related substances [3] [%] | After Ultraviolet Light Exposure (200 W hr/m2)(%) Degradant [4] [%] | After Ultraviolet Light Exposure (200 W hr/m2)(%) Total Related substances [4] [%] | Change (%) Degradant [4] [%] | Initial (%) Degradant [4] [%] | Initial (%) Total Related substances [4] [%] | After 1 Month (%) Degradant [5, 7] [%] | After 1 Month (%) Total Related substances [5, 7] [%] | Change (%) Degradant ([5]; 40 ± 2 °C / RH 75 ± 5 %) [%] | Initial (%) Total Related substances ([5]; Table 7, initial) [%] | further results
Cc1nc2c(O[C@H]3CCOc4cc(F)cc(F)c43)cc(C(=O)N(C)C)cc2[nH]1 [Hydrobromide Salt] | 1.972 | 2.173 | 7.787 | 8.905 | 5.815 | 1.972 | 2.173 | 1.972 | 2.173 | 1.956 | 2.227 | 2.028 | 2.265 | 0.056 | 1.972 | 2.173 | 2.188 | 2.519 | 0.216 | 2.173 | After 1 Month (%) Degradant ([1]; 90 % RH, 1 month): 3.698%; After 1 Month (%) Total Related substances ([1]; 90 % RH, 1 month): 3.922%; Change (%) Degradant ([1]; 90 % RH, 1 month vs initial): 1.726%; total related substances increased after 1 month ([2]; 60 °C): ≥ 5.0%; change in appearance, change in the color of the solid ([2]; 60 °C, 1 month): change in appearance; Remarks ([2]; 60 °C, 1 month, appearance): Discolorat ion; Remarks ([3]; Table 11, after exposure, appearance): Discolorat ion; changes in appearance ([3]; visible light exposure): changes in appearance; Initial (%) Degradant ([5]; Table 7, initial): 1.972%; increase in total related substances after 1 month ([5]; accelerated stability): ≥ 0.3%
Cc1nc2c(O[C@H]3CCOc4cc(F)cc(F)c43)cc(C(=O)N(C)C)cc2[nH]1 [Phosphate Salt] | 0.085 | 0.254 | 1.668 | 2.423 | 1.583 | 0.085 | 0.254 | 0.085 | 0.254 | 0.140 | 0.449 | 0.096 | 0.277 | 0.011 | 0.085 | 0.254 | 0.205 | 0.327 | 0.120 | 0.254 | After 24 hours Purity (%) ([6]; 20 mg/mL in purified water, 40 °C, 24 hours): Solid precipitated; Initial Purity (%) ([6]; 20 mg/mL in purified water, initial time point): 99.97%; After 24 hours Degradant (%) ([6]; degradant of Formula 4, 20 mg/mL in purified water, 40 °C, 24 hours): Solid precipitated; Initial Degradant (%) ([6]; degradant of Formula 4, 20 mg/mL in purified water, initial time point): 0.010%; solid precipitation / solution state [6]: solid precipitation; absorb moisture and deliquesce / melted ([1]; 90 % RH): absorb moisture and deliquesce; Remarks ([1]; 90 % RH, 1 month, state of the solid): Melted; Change (%) Degradant ([3]; Table 11, after exposure vs initial): 0.055%; After 1 Month (%) Purity [5, 7]: 99.6%; Initial (%) Purity ([5]; Table 7, initial): 99.7%; Initial (%) Degradant ([5]; Table 7, initial): 0.085%
maleate | – | – | – | – | – | – | – | – | – | – | – | – | – | – | – | – | – | – | – | – | solid precipitation / solution state [6]: a solid precipitated; absorb moisture and deliquesce / melted ([1]; 90 % RH): deliquesced
